Results: ChEMBL document CHEMBL1201862, “PubChem BioAssay data set” (2004)
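1) Cells in 96-well plates. 2) Compound, 48 h, 5 concentrations. 3) Linear interpolation between surrounding doses. 4) Unreached endpoint = highest concentration. Here, GI50 denotes the concentration required for 50% inhibition of growth.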 Active and inactive are the calls of the source. No stated cut-off is given here; in the data, active = GI50 up to about 1.1 µM and inactive = higher.

What was measured:
Experiment in all cases: inhibition of tumour cell growth, NCI panel, 48 h
CAKI-1 = test system: CAKI-1
TK-10 = test system: TK-10
COLO 205 = test system: COLO 205
DU-145 = test system: DU-145
UO-31 = test system: UO-31
HCT-116 = test system: HCT-116
MDA-MB-231 = test system: MDA-MB-231
K562 = test system: K562
HCT-15 = test system: HCT-15
ACHN = test system: ACHN
KM12 = test system: KM12
SK-MEL-2 = test system: SK-MEL-2
MOLT-4 = test system: MOLT-4
786-0 = test system: 786-0
NCI/ADR-RES = test system: NCI/ADR-RES
A498 = test system: A498
SN12C = test system: SN12C
SK-MEL-5 = test system: SK-MEL-5
MDA-MB-435 = test system: MDA-MB-435
U-251 = test system: U-251
MDA-N = test system: MDA-N
HOP-92 = test system: HOP-92
EKVX = test system: EKVX
RPMI-8226 = test system: RPMI-8226
RXF 393 = test system: RXF 393
BT-549 = test system: BT-549
OVCAR-4 = test system: OVCAR-4
LOX IMVI = test system: LOX IMVI
M14 = test system: M14
MCF7 = test system: MCF7
SNB-19 = test system: SNB-19
SW-620 = test system: SW-620
SF-268 = test system: SF-268
IGROV-1 = test system: IGROV-1
OVCAR-8 = test system: OVCAR-8
CCRF-CEM = test system: CCRF-CEM
UACC-257 = test system: UACC-257
SF-539 = test system: SF-539
NCI-H226 = test system: NCI-H226
SK-MEL-28 = test system: SK-MEL-28
NCI-H460 = test system: NCI-H460
SK-OV-3 = test system: SK-OV-3
UACC-62 = test system: UACC-62
OVCAR-5 = test system: OVCAR-5
PC-3 = test system: PC-3
SF-295 = test system: SF-295
T47D = test system: T47D
SNB-75 = test system: SNB-75
HT-29 = test system: HT-29
SR = test system: SR
A549 = test system: A549
OVCAR-3 = test system: OVCAR-3
NCI-H23 = test system: NCI-H23

c1ccc(C2(c3cc4ccccc4[nH]3)OCCO2)cc1
GI50 (CAKI-1): 86.1 µM (inactive)
GI50 (TK-10): > 100 µM (inactive)
GI50 (COLO 205): 27.9 µM (inactive)
GI50 (DU-145): 65.3 µM (inactive)
GI50 (UO-31): 42.6 µM (inactive)
GI50 (HCT-116): 37.8 µM (inactive)
GI50 (MDA-MB-231): > 100 µM (inactive)
GI50 (K562): 22.2 µM (inactive)
GI50 (HCT-15): 41.6 µM
GI50 (ACHN): 35.9 µM (inactive)
GI50 (KM12): 37.8 µM (inactive)
GI50 (SK-MEL-2): 42.6 µM (inactive)
GI50 (MOLT-4): 11.6 µM (inactive)
GI50 (786-0): > 100 µM (inactive)
GI50 (NCI/ADR-RES): 67.6 µM (inactive)
GI50 (A498): 37.2 µM (inactive)
GI50 (SN12C): 41.2 µM (inactive)
GI50 (SK-MEL-5): 23.1 µM (inactive)
GI50 (MDA-MB-435): 31.4 µM (inactive)
GI50 (U-251): > 100 µM (inactive)
GI50 (MDA-N): 49.1 µM (inactive)
GI50 (HOP-92): 17.3 µM (inactive)
GI50 (EKVX): 23.9 µM (inactive)
GI50 (RPMI-8226): 27.3 µM (inactive)
GI50 (RXF 393): > 100 µM (inactive)
GI50 (BT-549): 75.7 µM (inactive)
GI50 (OVCAR-4): 32.2 µM (inactive)
GI50 (LOX IMVI): 38 µM (inactive)
GI50 (M14): 33.3 µM (inactive)
GI50 (MCF7): 31 µM (inactive)
GI50 (SNB-19): > 100 µM (inactive)
GI50 (SW-620): 24 µM (inactive)
GI50 (SF-268): 47 µM (inactive)
GI50 (IGROV-1): 34 µM (inactive)
GI50 (OVCAR-8): 76.2 µM (inactive)
GI50 (CCRF-CEM): 18.4 µM (inactive)
GI50 (UACC-257): 31.6 µM (inactive)
GI50 (SF-539): > 100 µM (inactive)
GI50 (NCI-H226): 36.6 µM (inactive)
GI50 (SK-MEL-28): 28.2 µM (inactive)
GI50 (NCI-H460): 36.9 µM (inactive)
GI50 (SK-OV-3): 85.1 µM (inactive)
GI50 (UACC-62): 38.8 µM (inactive)
GI50 (OVCAR-5): 30.8 µM (inactive)
GI50 (PC-3): 36.6 µM (inactive)
GI50 (SF-295): 53.1 µM (inactive)
GI50 (T47D): 59.8 µM (inactive)
GI50 (SNB-75): > 100 µM (inactive)
GI50 (HT-29): 26.1 µM (inactive)
GI50 (SR): 22.4 µM (inactive)
GI50 (A549): 39.4 µM (inactive)
GI50 (OVCAR-3): 53.5 µM (inactive)
GI50 (NCI-H23): > 100 µM (inactive)
